Measurements taken from patent publication US20100204045A1, “Systemicity Enhancers” (BASF SE, priority 2007, published 2010).

System: aphids
Test: Root systemicity of fipronil with polymers: wheat plants in vermiculite drenched, infested with aphids, aphid population counted
Format: in vivo, aphids on wheat plants
Settings: 4 days after infestation, relative to plants not treated with fipronil
Experimental: To test the root systemicity of fipronil with polymers according to the invention, wheat plants in vermiculite were drenched with 20 ml fipronil/polymer (1:1 wt) solutions in Hoagland solution/acetone mixtures (0.6 v % acetone). Two fipronil and polymer concentrations were used, 3 ppm and 6 ppm. As reference fipronil solutions in Hoagland solution/acetone mixtures without polymer were used. Hoagland solution consists of the following ingredients:
0.25 v % of 1M KNO3 solution in water, 0.1 v % of 1 M MgSO4 solution in water, 0.05 v % of 1M KH2PO4 solution in water, 0.25 v % 1M Ca(NO3)2) solution in water, 0.05 v % of a trace solution consisting of 2.86 g/l H3BO3, 1.81 g/l MnCl2*4H2O, 0.22 g/l ZnSO4*7H2O, 0.08 g/l CuSO4*5H2O, 0.016 g/l MoO3 in water, 0.075 v % Sequestrene 138 Fe consisting of 30 g/l sodium ferric ethylenediamine di-(o-hydroxyphenylacetate) in water, 99.225 v % water sterilized and pH adjusted to 6-6.5 with NaOH.
The plants were then infested with aphids. After 4 days the aphid population on the wheat plants was counted. The results of fipronil and fipronil with polymer are related to the aphid population on plants that had not been treated with fipronil.

Work on `N#Cc1nn(-c2c(Cl)cc(C(F)(F)F)cc2Cl)c(N)c1[S+]([O-])C(F)(F)F` (stereo not shown) [Reference A, fipronil] yielded an Aphid population (Table 1, 3 ppm fipronil (and polymer, 1:1 wt)) of 51%, an Aphid population (Table 1, 6 ppm fipronil (and polymer, 1:1 wt)) of 23% and an Aphid population (Table 2, 3 ppm fipronil (and polymer, 1:1 wt)) of 23%. The Aphid population (Table 2, 6 ppm fipronil (and polymer, 1:1 wt)) was 12%.
